Source: patent US11377393B2, “Method and composition for improving plant growth” (DANSTAR FERMENT AG, priority 2016, dated 2022)

Tested on: triticale (var. Bellac)
Assay: Effect of inactive yeast and/or yeast derivatives in combination with nitrogen sources on plant growth (pot test, dry weight of aerial parts)
Format: in vivo
Conditions: triticale seeds in 20 g soil, 30 days, nitrogen 15 kg/ha, applied liquid to soil, letters = significance groups (p<0,1 Dunnett)
Experimental: Seeds of triticale (var. Bellac) coated with insectide Gaucho 350 and fungicide Rédigo® (Bayer) were used in the study. The tested nitrogenous components were the following: urea and calcium nitrate.
Two seeds were grown in individual plastic pots or cells containing equal quantity of soil (20 g). The treatments T1 to T4, T6, T7, T9, T10 and T13 (see Table 1) were distributed randomly in lines, with each line comprising of all treatments. Treatments T1 to T4, T6, T7, T9, T10 and T13 were repeated seven times and the experiment was repeated twice over time.
The treatments T1 to T4, T6, T7, T9, T10 and T13 were applied, in a liquid form, directly in the soil surrounding the seeds. The treatments were mixed with sterile distilled water in a total 5 ml samples. For the negative control, 5 ml of sterile distilled water was added. Seeds were grown under controlled conditions for 30 days. Growth conditions were 18/15 C for 10/14 hours (day/night) and 70% RH. Growth measurements were taken by measuring length and dry weight of the aerial part of the plants.
The growth in weight of the plants (the dry weight of the aerial parts) for each treatment was compared by statistical analysis.

SMILES	Dry weight gain average (Table 5, urea series) [bc]	Dry weight gain average (Table 4, calcium nitrate series) [b]
NC(N)=O [Treatment T3, Urea]	0.153	
O=[N+]([O-])[O-].O=[N+]([O-])[O-].[Ca+2] [Treatment T4, Calcium nitrate]		0.106
